≈ marks a conversion by molar mass, not a printed value.
How the values were obtained:
[1] = Plasma protein binding, equilibrium dialysis, human plasma; assay type: in vitro ADME; conditions: undiluted plasma
Protocol: (§1) Plasma protein binding of the investigated compounds was determined using equilibrium dialysis in single-use Rapid Equilibrium Dialysis devices with an 8 kDa molecular weight cutoff (Thermo Fisher Scientific), following the manufacturer’s protocol. In brief, 50 μL of undiluted human plasma (Biowest), spiked with the test compound at a final concentration of 100 μM, was added to the sample chamber, while 300 μL of phosphate-buffered saline (PBS) was placed in the buffer chamber. Devices were incubated for 4 h at 37 °C with gentle shaking.
(§2) After dialysis, 7.5 μL aliquots from both the plasma and buffer chambers were transferred directly into wells of a 384-well plate. To equalize the matrices for downstream processing, 7.5 μL of PBS was added to each plasma aliquot, and 7.5 μL of plasma was added to each buffer aliquot. Proteins were precipitated by adding four volumes of ice-cold methanol to each well, followed by thorough mixing and incubation at – 20 °C for 30 min. Plates were then stored overnight at 8 °C. Prior to analysis, the plate was centrifuged at 2,000 × g for 20 min at 8 °C. […] The fraction of unbound compound was calculated using the following equations: %Free=c(bufferchamber)/c(plasmachamber)*100% %Bound=100%−%Free

[2] = Plasma protein binding, mouse plasma; assay type: in vitro ADME; conditions: mouse, plasma, mouse plasma protein binding; read-out: PPB (m) (converted)
Protocol: as §1, §2

[3] = system: CCRF-CEM; experiment: In vitro cytotoxic activity; assay type: cell-based; conditions: Homo sapiens
Protocol: (§3) All the compounds were also tested for their in vitro cytotoxic activity on a small panel of four cancer cell lines (CCRF-CEM, HepG2, HeLa S3, HL-60) and nonmalignant human dermal fibroblasts (NHDF).

[4] = system: HepG2; experiment: In vitro cytotoxic activity; assay type: cell-based; conditions: Homo sapiens
Protocol: as §3

[5] = system: HL-60; experiment: In vitro cytotoxic activity; assay type: cell-based; conditions: Homo sapiens
Protocol: as §3

[6] = system: nonmalignant human dermal fibroblasts (NHDF); experiment: In vitro cytotoxic activity; assay type: cell-based
Protocol: as §3

[7] = system: HeLa S3; experiment: In vitro cytotoxic activity; assay type: cell-based; conditions: Homo sapiens
Protocol: as §3

[8] = biological target: T1, recombinant human CD73 (hCD73) (Homo sapiens, UniProt P21589); experiment: CD73 activity assay on recombinant human CD73; assay type: biochemical; conditions: ΔGexp = RT ln Ki
T1 sequence (P21589 27-574): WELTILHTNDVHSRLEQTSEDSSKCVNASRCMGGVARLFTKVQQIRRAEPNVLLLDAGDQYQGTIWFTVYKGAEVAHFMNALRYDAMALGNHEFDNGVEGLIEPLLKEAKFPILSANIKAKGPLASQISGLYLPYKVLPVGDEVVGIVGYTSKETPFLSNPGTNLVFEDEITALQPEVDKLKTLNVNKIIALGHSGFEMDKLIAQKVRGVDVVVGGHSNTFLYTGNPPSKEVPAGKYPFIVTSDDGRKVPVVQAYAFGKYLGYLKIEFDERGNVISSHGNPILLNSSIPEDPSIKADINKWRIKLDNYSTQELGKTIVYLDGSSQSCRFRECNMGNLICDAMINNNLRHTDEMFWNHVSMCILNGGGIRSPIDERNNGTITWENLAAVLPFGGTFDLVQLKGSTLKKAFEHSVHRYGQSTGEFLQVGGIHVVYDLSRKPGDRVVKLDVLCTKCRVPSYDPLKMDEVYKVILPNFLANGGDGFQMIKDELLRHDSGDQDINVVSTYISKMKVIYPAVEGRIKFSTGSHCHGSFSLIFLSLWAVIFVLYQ

[9] = in vitro; conditions: mouse, plasma
[10] = Microsomal stability assay, mouse liver microsomes; assay type: in vitro ADME; conditions: for Mics (m) comp remaining 60 min: 10 μM; for microsomal CLint at 10 µM: pooled liver microsomes, pH 7.4, read-out: Mics (m) CLint
[11] = Kinetic solubility in PBS; assay type: physicochemical; conditions: phosphate-buffered saline, pH 7.4, aqueous buffer, kinetic from dmso stock
Protocol: Test compounds were prepared as 10 mM stock solutions in DMSO and diluted in phosphate-buffered saline (PBS, pH 7.4) to a 100 μM solution, which was then aliquoted in duplicate. The duplicate samples were incubated in Multiscreen PCF Filter Plates (Merck Millipore) with sealed bottom at room temperature on a shaker for 2 h to allow equilibration. Following incubation, the samples were centrifuged into nonsterile, flat-bottom 96-well plates at 2,200 RCF for 12 min. Supernatants were then diluted 1:99 in a solution of 50% acetonitrile containing 0.1% DMSO. The diluted samples were transferred to 384-well Echo plates, which contained prespotted calibration standards prepared by Echo transfer of 10 mM and 1 mM DMSO stock solutions, resulting in calibration points ranging from 0.05 to 4 μM. Samples and standards were subsequently analyzed by Echo-MS.

[12] = Microsomal stability assay, human liver microsomes; assay type: in vitro ADME; conditions: for Mics (hu) comp remaining 60 min: 10 μM; for microsomal CLint at 10 µM: pooled liver microsomes, pH 7.4, read-out: Mics (hu) CLint
[13] = in vitro; conditions: human, plasma
[14] = human plasma protein binding, read-out: PPB (hu) (converted)

Row | SMILES | fraction unbound at 4 h, 100 µM [1, 14] | fraction unbound at 4 h, 100 µM [2] | IC50 [3] [µM] | IC50 [4] [µM] | IC50 [5] [µM] | IC50 [6] [µM] | IC50 [7] [µM] | dG_exp, experimental binding free energy [8] | half-life at 10 µM [9] [h] | Mics (m) comp remaining 60 min [10] [%] | microsomal CLint at 10 µM [10] [µL/min/mg] | solubility at 2 h [11] [µM] | Mics (hu) comp remaining 60 min [12] [%] | microsomal CLint at 10 µM [12] [µL/min/mg] | half-life at 10 µM [13] [h] | fraction unbound at 4 h, 100 µM ([1]; Tables 1 and 3, human plasma as printed in footnote, read-out: fup, fraction unbound in human plasma)
1 | O=P(O)(O)CP(=O)(O)OC[C@H]1O[C@@H](n2ccc3c(-c4ccco4)nc(F)nc32)[C@H](O)[C@@H]1O [14D.1, [(5-{[2-Fluoro-4-(furan-2-yl)-7H-pyrrolo[2,3-d]pyrimidin-7-yl]-β-D-ribofuranosyl}oxy)phosphonomethyl]phosphonic Acid] | 0.045 | 0.664 | > 10 | > 10 | > 10 | > 10 | > 10 | –13.4 kcal/mol | > 2 | 96 | 1 | 80 (≈ 39.5 µg/mL) | 103 | < 1 | > 2 | –
2 | CC1(C)Cc2cc(-c3nc(Cl)nc4c3ccn4[C@@H]3O[C@H](COP(=O)(O)CP(=O)(O)O)[C@@H](O)[C@H]3O)ccc2O1 [7B.30] | ≤ 0.01 | 0.229 | > 10 | > 10 | > 10 | > 10 | > 10 | –15.6 kcal/mol | > 2 | 88 | 6 | 86 (≈ 50.7 µg/mL) | 102 | < 1 | > 2 | –
3 | O=P(O)(O)CP(=O)(O)OC[C@H]1O[C@@H](n2ccc3c(-c4cccc5c4OCCC5)ncnc32)[C@H](O)[C@@H]1O [4A.13] | 0.108 | 0.594 | > 10 | > 10 | > 10 | > 10 | > 10 | –12.8 kcal/mol | > 2 | 94 | 1 | 81 (≈ 43.9 µg/mL) | 96 | 1 | > 2 | –
4 | COc1ccc2cc(-c3nc(Cl)nc4c3ccn4[C@@H]3O[C@H](COP(=O)(O)CP(=O)(O)O)[C@@H](O)[C@H]3O)ccc2c1 [7B.35] | ≤ 0.01 | 0.088 | > 10 | > 10 | > 10 | > 10 | > 10 | –15.4 kcal/mol | > 2 | 103 | < 2 | 84 (≈ 50.4 µg/mL) | 106 | < 2 | > 2 | –
5 | Nc1nc(-c2cc3ccccc3o2)c2ccn([C@@H]3O[C@H](COP(=O)(O)CP(=O)(O)O)[C@@H](O)[C@H]3O)c2n1 [11C.8] | 0.058 | 0.391 | > 10 | > 10 | > 10 | > 10 | > 10 | –13.9 kcal/mol | > 2 | 97 | 2 | 87 (≈ 47 µg/mL) | 100 | < 1 | > 2 | –
6 | O=P(O)(O)CP(=O)(O)OC[C@H]1O[C@@H](n2ccc3c(-c4cccc5ccoc45)ncnc32)[C@H](O)[C@@H]1O [4A.15] | 0.036 | 0.542 | > 10 | 8.7 | 8.6 | 5.7 | > 10 | –13.4 kcal/mol | > 2 | 102 | < 1 | 76 (≈ 39.9 µg/mL) | 118 | < 1 | > 2 | –
7 | O=P(O)(O)CP(=O)(O)OC[C@H]1O[C@@H](n2ccc3c(-c4ccc5cnccc5c4)ncnc32)[C@H](O)[C@@H]1O [4A.21] | 0.054 | 0.737 | > 10 | > 10 | 5.9 | > 10 | > 10 | –13.1 kcal/mol | > 2 | 79 | 8 | > 100 | 95 | 3 | > 2 | –
8 | COc1nc(-c2ccc3ccccc3c2)c2ccn([C@@H]3O[C@H](COP(=O)(O)CP(=O)(O)O)[C@@H](O)[C@H]3O)c2n1 [21F.7, [(5-{[2-Methoxy-4-(naphthalen-2-yl)-7H-pyrrolo[2,3-d]pyrimidin-7-yl]-β-D-ribofuranosyl}oxy)phosphonomethyl]phosphonic Acid] | ≤ 0.01 | 0.136 | > 10 | > 10 | > 10 | > 10 | > 10 | –13.4 kcal/mol | > 2 | – | < 1 | 79 (≈ 44.7 µg/mL) | 104 | < 1 | > 2 | 0.14
